Compound: Cc1ccc(Nc2nccc(N(C)c3ccc4c(C)n(C)nc4c3)n2)cc1S(N)(=O)=O [Pazopanib]
Assay: relative viability (nuclei count vs DMSO), 5 days (fraction); higher = more cells survive
Outline: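 Viability was defined as treated-well nuclei divided by vehicle-well nuclei, with the median taken over replicate plates. Cells from lung cancer lines sat overnight at 37 °C in 1536-well plates, received five √10-spaced library-drug doses by pinning on vehicle-anchored plates, and grew 5 days without medium change before one-step fixation, permeabilisation and Hoechst staining, 4× imaging and MetaXpress nuclear counts. Only plates with control CV under 25% and at least one doubling were kept.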

| Cell Line | relative viability (0.01 µM) | relative viability (0.03162 µM) | relative viability (0.1 µM) | relative viability (0.3162 µM) | relative viability (1 µM) |
| --- | --- | --- | --- | --- | --- |
| 201T | 0.937 | 0.919 | 0.979 | 1.06 | 0.932 |
| A549 | 0.935 | 0.99 | 1.04 | 1.01 | 1.17 |
| A-427 | 0.863 | 1.12 | 0.885 | 1 | 1.14 |
| ABC-1 | 0.798 | 0.89 |  | 1.08 | 0.974 |
| BEN | 0.729 | 1.1 | 0.929 | 1.05 | 1.05 |
| CAL-12T | 1.15 | 0.99 | 0.986 | 1.02 | 1.13 |
| COR-L23 | 1.13 | 1 | 1.04 | 1.09 | 1.04 |
| COR-L 105 | 1.08 | 0.91 | 0.95 | 1.1 | 1.14 |
| Calu-6 | 0.99 | 1.07 | 1.04 | 1.01 | 0.974 |
| ChaGo-K-1 | 0.927 | 1.01 | 1.04 | 0.99 | 0.978 |
| EBC-1 | 1.01 | 1.05 | 0.978 | 0.956 | 1.09 |
| EKVX | 0.902 | 0.989 | 0.964 | 1.06 | 1.03 |
| EMC-BAC-2 |  | 0.977 | 0.93 | 1.03 | 1.04 |
| EPLC-272H | 0.706 | 0.919 | 0.962 | 1.07 | 0.92 |
| H3255 | 0.925 | 0.965 | 0.869 | 0.998 | 1.01 |
| HARA | 0.957 | 0.978 | 1 | 1.04 | 1.03 |
| HCC-15 | 0.837 | 0.987 | 1.02 | 1.06 | 1.03 |
| HCC-44 | 0.886 | 0.929 | 0.998 | 0.983 | 1.02 |
| HCC-78 | 0.743 | 1 | 0.889 | 0.933 | 0.936 |
| HCC-366 | 0.922 | 0.989 | 1.03 | 1 | 1.1 |
| HCC-827 | 1.11 | 1.06 | 1.04 | 1.07 | 1.04 |
| HOP-62 | 0.963 | 1 | 1.02 | 1.07 | 0.958 |
| IA-LM | 0.935 | 0.995 | 1.03 | 1.05 | 0.918 |
| LC-2-ad | 1 | 0.99 | 1.01 | 1.07 | 1.07 |
| LCLC-97TM1 |  | 1 | 0.912 | 1.02 | 1.04 |
| LCLC-103H | 0.762 | 1.03 | 0.984 | 0.948 | 1.04 |
| LK-2 | 0.891 | 0.965 | 0.943 | 0.928 | 0.858 |

| Cell Line | relative viability (0.01 µM) | relative viability (0.03162 µM) | relative viability (0.1 µM) | relative viability (0.3162 µM) | relative viability (1 µM) |
| --- | --- | --- | --- | --- | --- |
| LOU-NH91 | 0.903 | 0.955 | 0.949 | 1.11 | 1.01 |
| LU99A | 0.759 | 0.909 | 1.01 | 1.03 | 1.01 |
| LXF-289 | 1.07 | 0.989 | 1.04 | 0.997 | 1 |
| NCI-H23 | 0.858 | 1.04 | 1.03 | 1.02 | 1.29 |
| NCI-H322M | 0.906 | 0.996 | 0.92 | 0.967 | 1.03 |
| NCI-H358 | 1.04 | 0.927 | 0.933 | 0.991 | 1.15 |
| NCI-H441 | 0.931 | 1.05 | 0.982 | 0.905 | 0.958 |
| NCI-H460 | 0.966 | 1 | 1.04 | 1.01 | 1.05 |
| NCI-H520 | 0.858 | 1.01 | 1.01 | 1.1 | 1.11 |
| NCI-H522 | 0.723 | 0.978 | 0.864 | 0.983 | 1.12 |
| NCI-H596 | 0.815 | 1.05 | 0.959 | 0.904 | 1.05 |
| NCI-H647 | 0.885 | 1.08 | 0.895 | 0.956 | 1.13 |
| NCI-H650 | 0.801 | 0.982 | 0.916 | 0.948 | 0.946 |
| NCI-H661 | 0.939 | 0.958 | 1.03 | 1 | 0.986 |
| NCI-H727 | 0.841 | 0.907 | 0.91 | 1 | 1.16 |
| NCI-H838 | 0.918 | 1.01 | 0.996 | 1.05 | 1.14 |
| NCI-H1299 | 1.02 | 1.03 | 1.03 | 0.993 | 0.95 |
| NCI-H1355 | 0.753 | 0.952 | 0.95 | 1 | 1.06 |
| NCI-H1395 | 0.848 | 1.03 | 0.825 | 1.1 | 1.2 |
| NCI-H1437 | 1 | 0.972 | 0.971 | 0.976 | 1.06 |
| NCI-H1563 | 0.85 | 0.997 | 1.02 | 0.996 | 1.07 |
| NCI-H1623 | 0.964 | 0.909 | 0.885 | 1.06 | 0.929 |
| NCI-H1648 | 0.582 | 0.869 | 0.842 | 0.903 | 0.837 |
| NCI-H1650 | 1.05 | 1.02 | 0.954 | 1.12 | 1.16 |
| NCI-H1651 | 0.917 | 1 | 1.01 | 0.956 | 1.01 |
| NCI-H1666 | 0.989 | 1 | 1.01 | 0.976 | 1.07 |
| NCI-H1703 | 0.744 | 0.735 | 0.562 | 0.353 | 0.331 |

| Cell Line | relative viability (0.01 µM) | relative viability (0.03162 µM) | relative viability (0.1 µM) | relative viability (0.3162 µM) | relative viability (1 µM) |
| --- | --- | --- | --- | --- | --- |
| NCI-H1734 | 0.776 | 1.03 | 1.11 | 1.13 | 1.12 |
| NCI-H1755 | 0.892 | 0.967 | 0.947 | 0.978 | 1.02 |
| NCI-H1792 |  | 0.911 | 0.832 | 1.12 | 0.956 |
| NCI-H1793 |  | 0.875 | 0.856 | 0.961 | 1.16 |
| NCI-H1915 | 0.915 | 1.02 | 0.995 | 0.961 | 0.894 |
| NCI-H1944 | 0.739 | 0.965 | 1.06 | 0.981 | 1.01 |
| NCI-H1975 | 0.889 | 0.895 | 0.993 | 0.944 | 1.03 |
| NCI-H1993 |  | 0.791 | 0.936 | 0.983 | 0.86 |
| NCI-H2009 | 0.989 | 1.04 | 0.937 | 1.02 | 0.891 |
| NCI-H2023 | 0.856 | 1 | 0.989 | 0.974 | 1.22 |
| NCI-H2085 | 0.973 | 1.04 | 0.966 | 1.01 | 1.02 |
| NCI-H2087 | 1.02 | 1.06 | 1.07 | 1.09 | 0.908 |
| NCI-H2126 | 0.91 | 0.903 | 1.02 | 0.991 | 0.996 |
| NCI-H2170 | 0.828 | 1.02 | 0.948 | 0.899 | 0.995 |
| NCI-H2228 | 0.964 | 1 | 1.03 | 0.973 | 1.04 |
| NCI-H2342 | 0.687 | 0.945 | 0.957 | 0.883 | 0.852 |
| NCI-H2347 | 0.932 | 1 | 0.98 | 1.05 | 1.04 |
| NCI-H2405 | 0.895 | 0.998 | 1.01 | 1.04 | 1.1 |
| NCI-H3122 | 1.04 | 0.997 | 1.01 | 1.06 | 1.05 |
| PC-3 [JPC-3] | 1.13 | 1.05 | 1.09 | 1.02 | 1.01 |
| PC-14 | 1.06 | 1.07 | 1.06 | 1.1 | 1.11 |
| RERF-LC-KJ | 1.11 | 1.03 | 0.984 | 0.919 | 0.969 |
| SK-LU-1 | 0.939 | 1.09 | 1.08 | 1.05 | 1.08 |
| SK-MES-1 | 0.946 | 0.987 | 1.04 | 1.05 | 1.05 |
| SW 900 | 0.796 | 0.902 | 0.762 | 1.12 | 1.2 |
| SW 1573 | 0.948 | 1.02 | 1.07 | 1.2 | 1.13 |

Source: the supplement of paper PMC10307832
